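Results reflect a 48-hour exposure of cells in 96-well plates to compound at five concentrations. GI50 is the concentration that inhibits growth by half. TGI: total growth inhibition.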
What was measured:
Assay in all cases: NCI tumour cell line growth inhibition, 48 h
DLD-1 colon = system: DLD-1 colon
DMS 273 small cell lung = system: DMS 273 small cell lung
SNB-78 CNS = system: SNB-78 CNS
RXF-631 renal = system: RXF-631 renal
KM20L2 colon = system: KM20L2 colon
HOP-18 NSCLC = system: HOP-18 NSCLC
XF 498 CNS = system: XF 498 CNS
M19-MEL melanoma = system: M19-MEL melanoma
MDA-N = system: MDA-N
SN12K1 renal = system: SN12K1 renal
P388/ADR leukemia = system: P388/ADR leukemia
P388 leukemia = system: P388 leukemia

Row | SMILES | TGI (DLD-1 colon) [µM] | TGI (DMS 273 small cell lung) [µM] | TGI (SNB-78 CNS) [µM] | TGI (RXF-631 renal) [µM] | TGI (KM20L2 colon) [µM] | TGI (HOP-18 NSCLC) [µM] | TGI (XF 498 CNS) [µM] | TGI (M19-MEL melanoma) [µM] | further results
1 | C[Si](C)(C)CN1C(=O)c2ccccc2C1(O)c1ccccc1 (stereo not given) | > 100 | > 100 | > 100 | > 100 | > 100 | > 100 | > 100 | – | –
2 | Cc1ccc(C)c(N2C(=O)C(=O)C(c3nc4ccccc4o3)/C(=N/N)C2=O)c1 (stereo not given) | > 100 | > 100 | > 100 | – | > 100 | > 100 | > 100 | > 100 | –
3 | CC1COS(=O)O1 (stereo not given) | > 100 | > 100 | > 100 | – | > 100 | > 100 | > 100 | > 100 | –
4 | CCOc1ccc(N=Cc2c3ccccc3nc3ccccc23)cc1 | > 100 | > 100 | > 100 | > 100 | > 100 | > 100 | > 100 | > 100 | –
5 | c1ccc(NCCSc2nc3ccccc3s2)cc1 | – | – | – | – | – | – | – | – | TGI (MDA-N): > 100 µM
6 | O=C1c2ccc3c4ccccc4n(-c4ccccc4)c3c2C(=O)N1c1ccc(Cl)cc1 | > 100 | > 100 | > 100 | > 100 | > 100 | – | – | > 100 | –
7 | Nc1ccc(C2=N/C(=C\c3cccc(N)c3)C(=O)O2)cc1 | > 100 | – | > 100 | > 100 | > 100 | – | > 100 | > 100 | –
8 | CCOC(=O)C1=C(Nc2ccc(Br)cc2)OCC1=O | > 100 | > 100 | > 100 | – | > 100 | > 100 | – | > 100 | –
9 | O=C1C2[C@@H](C(=O)N1c1ccc(Br)cc1)C13C(=CC2([N+](=O)[O-])[C@@H]2C(=O)N(c4ccc(Br)cc4)C(=O)[C@@H]21)c1ccccc1N3c1ccccc1 (stereo not given in full) | > 100 | – | > 100 | > 100 | – | > 100 | > 100 | > 100 | –
10 | NCCN.O=C([O-])[O-].O=C([O-])[O-].[Co+3].[K+] | > 100 | – | > 100 | – | > 100 | – | – | > 100 | GI50 (DLD-1 colon): > 100 µM; GI50 (SNB-78 CNS): > 100 µM; GI50 (KM20L2 colon): > 100 µM; GI50 (M19-MEL melanoma): > 100 µM
11 | O=[N+]([O-])c1ccc(Sc2c3ccccc3nc3ccccc23)cn1 | – | – | – | – | – | – | – | – | TGI (MDA-N): 31.8 µM
12 | Cc1ccc2[c](c1)[Sn]([c]1ccccc1)([c]1ccccc1)[c]1cc(C)ccc1N2C | – | > 100 | > 100 | – | > 100 | > 100 | > 100 | > 100 | GI50 (DMS 273 small cell lung): 44.5 µM; GI50 (SNB-78 CNS): 46.2 µM; GI50 (KM20L2 colon): > 100 µM; GI50 (M19-MEL melanoma): 37.7 µM; GI50 (HOP-18 NSCLC): > 100 µM; GI50 (XF 498 CNS): 63.6 µM
13 | NC(=S)N/N=C1\CCCC\C1=C/c1ccccc1 | > 100 | 82.6 | > 100 | > 100 | > 100 | > 100 | – | > 100 | –
14 | CSc1ccc2c(cc1=O)[C@@H](NC(=O)c1cc(O)c(O)c(O)c1)CCc1cc(O)c(O)c(O)c1-2 | 55.7 | 39.9 | 91.8 | 30.4 | > 100 | – | 39.4 | 29.9 | –
15 | CC1CCC(C(C)(C)c2ccccc2)C(=O)C1 (stereo not given) | > 100 | > 100 | > 100 | – | > 100 | > 100 | > 100 | > 100 | –
16 | CS(=O)(=O)CS(=O)(=O)OCCCl | 1450 | 995 | 420 | – | 1240 | 1380 | – | 937 | TGI (SN12K1 renal): 963 µM; TGI (MDA-N): 470 µM; TGI (P388/ADR leukemia): 447 µM; TGI (P388 leukemia): 306 µM
17 | Cc1c2c(C(N)=O)nccc2c(C)c2c1c1ccccc1n2Cc1ccccc1 | – | – | – | – | – | – | – | – | TGI (MDA-N): > 100 µM
18 | C1=NC(N(Cc2ccccc2)Cc2ccccc2)N(Cc2ccccc2)N1 (stereo not given) | 67.9 | 29.1 | > 100 | 56 | 30.8 | 45.7 | – | 34.2 | –
19 | COc1cc(/C=N\O[Si](C)(C)C(C)(C)C)ccc1O[Si](C)(C)C(C)(C)C | > 100 | > 100 | > 100 | 71.6 | > 100 | > 100 | > 100 | > 100 | –
20 | CCOC(=O)C(C)(c1c(C)[nH]c2ccccc12)c1c(C)[nH]c2ccccc12 | 75.9 | 31 | 49.2 | – | 31 | – | 39.4 | – | –
21 | CC(=O)[CH-]C(=O)c1ccccc1.CC(=O)[CH-]C(=O)c1ccccc1.O=S(=O)([O-])c1cc([O-])c2c([O-])cc(S(=O)(=O)[O-])cc2c1.[Na+].[Ti+4] | – | – | – | – | > 100 | – | – | – | GI50 (KM20L2 colon): > 100 µM

Row | SMILES | TGI (DLD-1 colon) [µM] | TGI (DMS 273 small cell lung) [µM] | TGI (SNB-78 CNS) [µM] | TGI (RXF-631 renal) [µM] | TGI (KM20L2 colon) [µM] | TGI (HOP-18 NSCLC) [µM] | TGI (XF 498 CNS) [µM] | TGI (M19-MEL melanoma) [µM] | further results
22 | CC(C)(C)c1cc(C(=O)/C=C/c2ccc(C(=O)O)cc2)cc(C(C)(C)C)c1 | – | – | – | – | – | – | – | – | TGI (MDA-N): 8.6 µM
23 | CCCCCCCCCCCCCCCCCCC1=C(O)C(=O)C=C(OC)C1=O | > 100 | > 100 | > 100 | – | > 100 | > 100 | > 100 | > 100 | –
24 | COC(=O)c1c[nH]cc1CCCCc1c[nH]cc1C(=O)OC | – | > 100 | > 100 | > 100 | > 100 | > 100 | > 100 | > 100 | –
25 | Cn1c(=S)c2[nH]c(SCCCc3ccccc3)nc2n(C)c1=O | – | – | – | – | – | – | – | – | TGI (MDA-N): > 100 µM
26 | NC(=O)c1cn(Cc2ccccc2)c(=O)n1Cc1ccccc1 | > 100 | > 100 | > 100 | – | > 100 | > 100 | > 100 | > 100 | –
27 | COC(=O)C(=O)CC(=O)c1cccc(OC)c1 | – | – | – | – | – | – | – | – | TGI (MDA-N): > 100 µM
28 | CC(C)(C)OC(=O)N1C2CCCC23O[C@@H]1c1cc2c(cc1C3=O)OCO2 (stereo not given in full) | > 100 | > 100 | > 100 | > 100 | – | – | > 100 | > 100 | –
29 | Cc1ccc(C)c(N2C(=O)C(=O)C(c3nc4ccccc4o3)/C(=N\NC(=O)c3ccccc3O)C2=O)c1 (stereo not given) | > 100 | 36.1 | > 100 | – | > 100 | > 100 | – | > 100 | –
30 | C=C1C(=O)OC2C1CC(OC(C)=O)/C(C)=C/CCC1(C)OC21 (stereo not given) | – | – | – | – | – | – | – | – | TGI (MDA-N): > 100 µM
31 | O=C1c2ccccc2C(=O)N1C/C=N/NS(=O)(=O)c1ccc(Br)cc1 | > 100 | > 100 | > 100 | > 100 | > 100 | > 100 | > 100 | > 100 | –
32 | Cc1c(Cl)cccc1NC(=O)c1cccc([N+](=O)[O-])c1O | > 100 | 79.8 | > 92.6 | > 100 | 54.3 | > 28.9 | 38.8 | 48 | –
33 | COc1cc(-c2nnc3n2NC=C(C(=O)O)S3)cc(OC)c1OC | > 79.9 | > 82.9 | > 100 | > 100 | > 100 | > 100 | > 100 | > 100 | –
34 | C[P+](C)(C)c1ccccc1 | > 100 | > 100 | – | > 100 | > 100 | > 100 | > 100 | > 100 | –
35 | Cc1ccc2occ/c(=N\Nc3ccccc3)c2c1 | – | – | – | – | – | – | – | – | TGI (MDA-N): > 100 µM
36 | COc1cc2c(cc1OC)C1Cc3cc(OC)c(OC)cc3N1CC2 (stereo not given) | > 100 | – | > 100 | – | > 100 | – | 43.6 | 80.5 | –
37 | C1COCCSC2=C(SCCO1)SC(=C1SC3=C(SCCOCCOCCS3)S1)S2 | > 100 | > 100 | > 100 | – | > 100 | > 100 | 73.3 | – | –
38 | CCC[CH2][Sn]1([CH2]CCC)[O]CC(COc2c(Cl)cc(Cl)cc2Cl)[O]1 (stereo not given) | 2.95 | 3.44 | 3.49 | – | 10.7 | 2.71 | – | 2.22 | GI50 (DLD-1 colon): 1.49 µM; GI50 (DMS 273 small cell lung): 1.78 µM; GI50 (SNB-78 CNS): 0.962 µM; GI50 (KM20L2 colon): 2.98 µM; GI50 (M19-MEL melanoma): 0.941 µM; GI50 (HOP-18 NSCLC): 1.41 µM
39 | O=C1C=CC(=CC=C2C=CN(CCCCCCCCCCC(=O)NCCCCCCCCCCCC(=O)O)C=C2)C=C1 | > 100 | > 100 | > 100 | > 100 | > 100 | – | > 100 | > 100 | –
40 | COc1ccc(/C=C/c2cnccn2)cc1OC | – | – | – | – | – | – | – | – | TGI (MDA-N): > 10 µM
41 | NC(CCc1ncc(C(=O)O)s1)C(=O)O (stereo not given) | > 100 | – | > 100 | > 100 | – | > 100 | – | > 100 | –
42 | CC(Cl)CN1c2ccccc2Sc2ccc(Cl)cc21 (stereo not given) | – | – | – | – | – | – | – | – | TGI (MDA-N): > 10 µM
